Results reported in US20230038623A1, “NOVEL SKIN CARE COMPOSITION” (BEIERSDORF AG, priority 2019, published 2023).

Columns and labels:
C. acnes strain C3 = assay: Evaluation of the minimum inhibitory concentration (MIC) of cosmetic excipients; type: cell-based, Cutibacterium acnes; conditions: MIC (% w/vol) at which compound starts interfering with growth, anaerobic, 3 days, 37° C., scored by turbidity
Description: (§1) In microbiology, the MIC is the lowest concentration of a chemical which prevents visible growth of bacterium. The resulted MIC value depends both on the microorganism and the test compound. The MIC is determined by preparing concentrations series of the test compound in vitro, incubating the solutions with the separate batches of cultured bacteria, and measuring the results using agar dilution or broth microdilution. For the experiments with C. acnes strains C3 and K8, media comprising yeast extract soy peptone and dextrose were used. The MIC is determined by turbidity.
(§2) A total of 125 cosmetic excipients were tested for their compatibility with C. acnes strains C3 and K8. Hydrophilic compounds were tested in a 96-well plate liquid broth format, poorly soluble compounds were pre-dissolved in DMSO before dilution in liquid broth and hydrophobic or solid compounds were tested in an agar well diffusion test assay. The different dilutions of the test excipients in media were prepared in Falcon tubes and then distributed in a deep well plate using a multistepper. Each well received 1.2 ml and was subsequently inoculated with 120 μl of C. acnes bacteria suspension (strain C3 and K8). From the deep well plate 200 μl were transferred in each well of a clear 96 well replicate plate. The leftover was discarded. The plates were then incubated anaerobically for 3 days at 37° C. Following incubation, the test plates were visually examined and wells were scored for growth or complete growth inhibition to define the minimum inhibitory concentration.
(§3) These excipients are listed in the below table with their compatibility values for C. acnes strains C3 and K8. The compatibility values represent the MIC value of the listed ingredients with the tested C. acnes strains. At this concentration [% w/vol] the tested compound starts interfering with the growth of the tested strains. The compounds can be used in formulations at concentrations below this concentration.

C. acnes strain K8 = assay: as above; type: cell-based, Cutibacterium acnes; conditions: MIC (% w/vol) at which compound starts interfering with growth, anaerobic, 3 days, 37° C., scored by turbidity
Description: as §1, §2, §3

CCCCCCC(O)CO (centres unmarked) [caprylyl glycol]
COMPATABILITY VALUE C3 [%] (C. acnes strain C3): 0.18%
COMPATABILITY VALUE K8 [%] (C. acnes strain K8): 0.18%

CC(CO)CO [methylpropanediol]
COMPATABILITY VALUE C3 [%] (C. acnes strain C3): 4.00%
COMPATABILITY VALUE K8 [%] (C. acnes strain K8): 4.00%

ethylhexyl cocoate
COMPATABILITY VALUE C3 [%] (C. acnes strain C3): 10.00%
COMPATABILITY VALUE K8 [%] (C. acnes strain K8): 10.00%

tocopherol
COMPATABILITY VALUE C3 [%] (C. acnes strain C3): 1.50%
COMPATABILITY VALUE K8 [%] (C. acnes strain K8): 1.50%
